For orientation: IC50 means the point on the concentration scale where inhibition reaches its midpoint.

What all share (format): cell-based
In one test the target is T1, mTOR (Homo sapiens, UniProt P42345).
T1 construct: endogenous in cells; host or cells: MDA-MB-468 cells
The experiment in a line: mTOR cellular potency assay (phospho-AKT Ser473 in MDA-MB-468 cells). The settings on record: 2 hours, phospho-AKT (Ser473), protocol A or B; read-out: Assay d) mTOR Cell IC50. The procedure:
The phospho-AKTser473 cell assay was performed in the MDA-MB-468 cell line, a PTEN null breast adenocarcinoma human cell line. As a consequence of the lack of PTEN, pAKT is constitutively activated which eliminates the requirement for stimulation to induce phosphorylation.
MDA-MB-468 cells were cultured in cell media composed of DMEM (Dulbecco's modified Eagle's medium #D6546)), 10% (v/v) Foetal Calf Serum and 1% (v/v) L-Glutamine. After harvesting, cells were dispensed into black, 384-well Costar plates (#3712, Corning) to give 1500 cells per well in a total volume of 40 μl cell media, and were incubated overnight at 37° C., 90% relative humidity and 5% CO2 in a rotating incubator. […]
Stained cell plates were covered with black seals, and then read on the Acumen (TTP Labtech) plate reader. The primary channel (green fluorescence, 488 nm) is used to set the intensity settings for the max/min cut off to allow for weekly variation in staining and the ‘AKT+: No of objects (No)’ data is used for the analysis. Data was analysed and IC50s were calculated using Genedata Screener® software. […]
Stained cell plates were covered with black seals, and then read on the Cell Insight imaging platform (Thermo Scientific), with a 10× objective. […] The secondary channel (Green […], BGRFR_485_20) measures pAKT staining Data was analysed and IC5os were calculated using Genedata Screener® software.

For another test, the target named is PI3Kα (Homo sapiens, UniProt P42336). Put plainly: PI3K cellular potency assay (phospho-Akt T308 ELISA in BT474 cells). Conditions: 2 h, phospho-Akt (T308); read-out: Assay c) PI3Kα Cell IC50. The text has this: This assay was used to measure PI3K-a inhibition in cells. PDK1 was identified as the upstream activation loop kinase of protein kinase B (Akt1), which is essential for the activation of PKB. Activation of the lipid kinase phosphoinositide 3 kinase (PI3K) is critical for the activation of PKB by PDK1.
Following ligand stimulation of receptor tyrosine kinases, PI3K is activated, which converts PIP2 to PIP3, which is bound by the PH domain of PDK1 resulting in recruitment of PDK1 to the plasma membrane where it phosphorylates AKT at Thr308 in the activation loop.
The aim of this cell-based mode of action assay is to identify compounds that inhibit PDK activity or recruitment of PDK1 to membrane by inhibiting PI3K activity. Phosphorylation of phospho-Akt (T308) in BT474c cells following treatment with compounds for 2 h is a direct measure of PDK1 and indirect measure of PI3K activity. […]
After 20 minutes, the cell lysates were transferred into ELISA plates (Greiner #781077) which had been pre-coated with an anti total-AKT antibody in PBS buffer and non-specific binding was blocked with 1% BSA in PBS containing 0.05% Tween 20. […] Plates were read using a Tecan Safire plate reader using 325 nm excitation and 420 nm emission wavelengths respectively. […]

The target in another test is T2, ATM (Homo sapiens, UniProt Q13315).
T2 construct: endogenous in cells; host or cells: HT29 cells (ECACC #85061109)
The experiment in a line: ATM cellular potency assay (pATM Ser1981 in irradiated HT29 cells). Conditions: X-ray irradiation, pATM (Ser1981); read-out: Assay a) ATM Cell IC50. The text has this:
Cellular irradiation induces DNA double strand breaks and rapid intermolecular autophosphorylation of serine 1981 that causes dimer dissociation and initiates cellular ATM kinase activity. Most ATM molecules in the cell are rapidly phosphorylated on this site after doses of radiation as low as 0.5 Gy, and binding of a phosphospecific antibody is detectable after the introduction of only a few DNA double-strand breaks in the cell.
The rationale of the pATM assay is to identify inhibitors of ATM in cells. HT29 cells are incubated with test compounds for lhr prior to X-ray-irradiation. 1 h later the cells are fixed and stained for pATM (Ser1981). The fluorescence is read on the arrayscan imaging platform.
HT29 cells (ECACC #85061109) were seeded into 384 well assay plates (Costar #3712) at a density of 3500 cells/well in 40 μl EMEM medium containing 1% L glutamine and 10% FBS and allowed to adhere overnight. […]
Phospho-ATM Ser1981 antibody (Millipore #MAB3806) was diluted 10000 fold in PBS containing 0.05% polysorbate/Tween and 3% BSA and 20 μl was added to each well and incubated over night at r.t. […] After 1 h incubation at r.t., the plates were washed three times with 50 μl/well PBS, using a Biotek EL405 plate washer, and plates were sealed and kept in PBS at 4° C. until read. Plates were read using an ArrayScan VTI instrument, using an XF53 filter with 10× objective. […]

The target in another test is T3, ATR (Homo sapiens, UniProt Q13535).
T3 construct: endogenous in cells; host or cells: HT29 cells (ECACC #85061109)
The experiment in a line: ATR cellular potency assay (pChk1 Ser345 in HT29 cells with 4NQO). The settings on record: pChk1 (Ser 345); read-out: Assay b) ATR Cell IC50. The text has this: ATR is a PI 3-kinase-related kinase which phosphorylates multiple substrates on serine or threonine residues in response to DNA damage during or replication blocks. Chk1, a downstream protein kinase of ATR, plays a key role in DNA damage checkpoint control. Activation of Chk1 involves phosphorylation of Ser317 and Ser345 (the latter regarded as the preferential target for phosphorylation/activation by ATR). This was a cell based assay to measure inhibition of ATR kinase, by measuring a decrease in phosphorylation of Chk1 (Ser 345) in HT29 cells, following treatment with compound of Formula (I) and the UV mimetic 4NQO (Sigma #N8141).
HT29 cells (ECACC #85061109) were seeded into 384 well assay plates (Costar #3712) at a density of 6000 cells/well in 40 μl EMEM medium containing 1% L glutamine and 10% FBS and allowed to adhere overnight. […]
Phospho-Chk1 Ser 345 antibody (Cell Signalling Technology #2348) was diluted 150 fold in PBS containing 0.05% polysorbate/Tween and 15 μl was added to each well and incubated over night at r.t. […] After 2 h incubation at r.t., the plates were washed three times with 50 μl/well PBS, using a Biotek EL405 plate washer, and plates were then sealed with black plate seals until read. Plates were read using an ArrayScan VTI instrument, using an XF53 filter with 10× objective. […]

T2 sequence (Q13315 whole entry): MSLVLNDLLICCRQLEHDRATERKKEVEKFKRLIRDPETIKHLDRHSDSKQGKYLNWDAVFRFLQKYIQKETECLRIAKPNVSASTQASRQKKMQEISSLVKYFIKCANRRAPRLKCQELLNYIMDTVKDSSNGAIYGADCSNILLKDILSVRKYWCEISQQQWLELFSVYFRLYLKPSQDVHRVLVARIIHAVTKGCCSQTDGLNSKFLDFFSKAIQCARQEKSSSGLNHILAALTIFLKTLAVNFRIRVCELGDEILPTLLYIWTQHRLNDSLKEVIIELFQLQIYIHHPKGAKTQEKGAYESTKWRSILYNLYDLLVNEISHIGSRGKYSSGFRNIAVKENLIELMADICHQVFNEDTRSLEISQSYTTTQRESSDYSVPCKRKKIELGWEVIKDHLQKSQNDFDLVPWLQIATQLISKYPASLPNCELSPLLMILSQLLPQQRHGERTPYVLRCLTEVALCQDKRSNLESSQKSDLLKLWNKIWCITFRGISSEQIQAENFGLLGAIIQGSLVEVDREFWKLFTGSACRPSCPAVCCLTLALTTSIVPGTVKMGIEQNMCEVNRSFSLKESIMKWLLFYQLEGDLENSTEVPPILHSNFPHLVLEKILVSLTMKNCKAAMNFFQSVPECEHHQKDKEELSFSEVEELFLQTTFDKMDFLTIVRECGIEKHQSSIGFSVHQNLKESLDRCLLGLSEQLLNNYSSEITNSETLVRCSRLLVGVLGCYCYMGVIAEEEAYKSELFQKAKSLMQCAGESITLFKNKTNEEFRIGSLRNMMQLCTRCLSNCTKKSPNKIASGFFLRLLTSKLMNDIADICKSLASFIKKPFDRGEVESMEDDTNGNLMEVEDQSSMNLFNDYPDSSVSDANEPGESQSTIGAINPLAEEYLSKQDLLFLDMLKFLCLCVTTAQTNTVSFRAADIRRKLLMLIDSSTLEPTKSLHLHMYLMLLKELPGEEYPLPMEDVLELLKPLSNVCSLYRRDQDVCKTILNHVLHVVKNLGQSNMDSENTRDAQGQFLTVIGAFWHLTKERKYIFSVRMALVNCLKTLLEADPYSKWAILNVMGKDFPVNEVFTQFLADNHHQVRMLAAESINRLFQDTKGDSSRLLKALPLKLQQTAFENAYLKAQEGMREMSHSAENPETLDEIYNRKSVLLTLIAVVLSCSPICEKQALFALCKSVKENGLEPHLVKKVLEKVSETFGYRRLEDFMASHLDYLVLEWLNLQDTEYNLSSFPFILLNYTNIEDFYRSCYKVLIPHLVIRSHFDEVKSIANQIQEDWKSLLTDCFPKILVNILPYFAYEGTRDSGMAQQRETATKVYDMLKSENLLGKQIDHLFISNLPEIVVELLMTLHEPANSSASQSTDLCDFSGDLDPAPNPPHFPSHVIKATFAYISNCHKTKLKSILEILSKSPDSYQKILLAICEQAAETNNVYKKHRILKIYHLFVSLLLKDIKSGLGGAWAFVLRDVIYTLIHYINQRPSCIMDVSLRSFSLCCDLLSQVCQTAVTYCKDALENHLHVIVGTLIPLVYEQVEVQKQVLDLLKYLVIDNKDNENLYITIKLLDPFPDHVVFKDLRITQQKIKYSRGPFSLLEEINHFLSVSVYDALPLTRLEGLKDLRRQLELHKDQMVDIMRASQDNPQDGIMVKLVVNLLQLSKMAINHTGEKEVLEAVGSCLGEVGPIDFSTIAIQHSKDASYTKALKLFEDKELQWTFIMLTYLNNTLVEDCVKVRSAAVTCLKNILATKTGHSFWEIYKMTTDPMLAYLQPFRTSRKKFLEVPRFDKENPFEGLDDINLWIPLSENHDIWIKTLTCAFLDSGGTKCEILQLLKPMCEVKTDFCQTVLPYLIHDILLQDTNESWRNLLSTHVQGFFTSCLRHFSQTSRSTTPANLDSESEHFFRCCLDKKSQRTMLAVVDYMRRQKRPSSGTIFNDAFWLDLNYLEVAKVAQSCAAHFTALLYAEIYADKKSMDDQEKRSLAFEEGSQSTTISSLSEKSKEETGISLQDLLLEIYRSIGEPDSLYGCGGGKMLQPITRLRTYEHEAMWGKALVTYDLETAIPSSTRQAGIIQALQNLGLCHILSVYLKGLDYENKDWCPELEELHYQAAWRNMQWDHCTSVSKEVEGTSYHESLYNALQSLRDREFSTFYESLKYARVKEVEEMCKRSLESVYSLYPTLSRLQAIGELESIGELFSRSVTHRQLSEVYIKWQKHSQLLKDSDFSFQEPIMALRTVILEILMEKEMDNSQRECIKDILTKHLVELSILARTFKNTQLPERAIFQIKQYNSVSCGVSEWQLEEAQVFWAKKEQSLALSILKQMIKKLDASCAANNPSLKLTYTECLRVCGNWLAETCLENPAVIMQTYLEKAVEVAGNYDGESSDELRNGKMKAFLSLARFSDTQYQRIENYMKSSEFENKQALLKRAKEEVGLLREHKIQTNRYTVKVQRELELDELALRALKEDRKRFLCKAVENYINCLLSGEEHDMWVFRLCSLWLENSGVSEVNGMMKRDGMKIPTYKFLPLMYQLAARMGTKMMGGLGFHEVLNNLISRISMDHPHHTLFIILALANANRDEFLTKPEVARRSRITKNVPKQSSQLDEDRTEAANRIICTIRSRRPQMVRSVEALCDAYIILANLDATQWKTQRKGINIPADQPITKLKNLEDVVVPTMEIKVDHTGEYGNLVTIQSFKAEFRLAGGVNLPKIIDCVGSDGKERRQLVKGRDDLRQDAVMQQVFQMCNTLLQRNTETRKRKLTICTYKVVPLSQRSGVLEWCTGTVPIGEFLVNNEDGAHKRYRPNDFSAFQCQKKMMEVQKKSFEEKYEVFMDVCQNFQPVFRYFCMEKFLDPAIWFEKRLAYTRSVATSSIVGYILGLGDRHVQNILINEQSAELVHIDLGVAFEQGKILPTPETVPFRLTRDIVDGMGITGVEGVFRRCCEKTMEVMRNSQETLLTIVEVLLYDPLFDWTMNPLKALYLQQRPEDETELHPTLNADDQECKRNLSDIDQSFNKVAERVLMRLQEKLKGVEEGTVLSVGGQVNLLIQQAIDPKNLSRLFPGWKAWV
PI3Kα, sequence (P27986 2-724): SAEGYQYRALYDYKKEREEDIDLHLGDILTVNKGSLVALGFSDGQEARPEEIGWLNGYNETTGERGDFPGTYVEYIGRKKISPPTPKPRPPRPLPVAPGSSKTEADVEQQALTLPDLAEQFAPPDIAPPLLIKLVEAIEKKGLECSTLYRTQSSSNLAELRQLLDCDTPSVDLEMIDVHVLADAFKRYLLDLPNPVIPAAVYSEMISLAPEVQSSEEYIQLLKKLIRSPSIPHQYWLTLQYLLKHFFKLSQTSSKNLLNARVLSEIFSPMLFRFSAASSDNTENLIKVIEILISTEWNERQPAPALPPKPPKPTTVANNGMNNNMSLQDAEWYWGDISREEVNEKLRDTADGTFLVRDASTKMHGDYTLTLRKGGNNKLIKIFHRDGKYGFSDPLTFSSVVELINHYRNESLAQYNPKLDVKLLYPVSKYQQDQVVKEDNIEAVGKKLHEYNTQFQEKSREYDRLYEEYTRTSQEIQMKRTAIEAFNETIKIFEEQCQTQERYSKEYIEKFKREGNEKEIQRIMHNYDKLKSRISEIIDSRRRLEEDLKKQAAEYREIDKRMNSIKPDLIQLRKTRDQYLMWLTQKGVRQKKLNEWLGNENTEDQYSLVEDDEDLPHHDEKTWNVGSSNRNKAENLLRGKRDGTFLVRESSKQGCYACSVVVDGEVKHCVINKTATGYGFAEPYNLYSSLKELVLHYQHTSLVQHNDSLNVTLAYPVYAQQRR
PI3Kα, sequence (P42336 whole entry, the tested form may be a part): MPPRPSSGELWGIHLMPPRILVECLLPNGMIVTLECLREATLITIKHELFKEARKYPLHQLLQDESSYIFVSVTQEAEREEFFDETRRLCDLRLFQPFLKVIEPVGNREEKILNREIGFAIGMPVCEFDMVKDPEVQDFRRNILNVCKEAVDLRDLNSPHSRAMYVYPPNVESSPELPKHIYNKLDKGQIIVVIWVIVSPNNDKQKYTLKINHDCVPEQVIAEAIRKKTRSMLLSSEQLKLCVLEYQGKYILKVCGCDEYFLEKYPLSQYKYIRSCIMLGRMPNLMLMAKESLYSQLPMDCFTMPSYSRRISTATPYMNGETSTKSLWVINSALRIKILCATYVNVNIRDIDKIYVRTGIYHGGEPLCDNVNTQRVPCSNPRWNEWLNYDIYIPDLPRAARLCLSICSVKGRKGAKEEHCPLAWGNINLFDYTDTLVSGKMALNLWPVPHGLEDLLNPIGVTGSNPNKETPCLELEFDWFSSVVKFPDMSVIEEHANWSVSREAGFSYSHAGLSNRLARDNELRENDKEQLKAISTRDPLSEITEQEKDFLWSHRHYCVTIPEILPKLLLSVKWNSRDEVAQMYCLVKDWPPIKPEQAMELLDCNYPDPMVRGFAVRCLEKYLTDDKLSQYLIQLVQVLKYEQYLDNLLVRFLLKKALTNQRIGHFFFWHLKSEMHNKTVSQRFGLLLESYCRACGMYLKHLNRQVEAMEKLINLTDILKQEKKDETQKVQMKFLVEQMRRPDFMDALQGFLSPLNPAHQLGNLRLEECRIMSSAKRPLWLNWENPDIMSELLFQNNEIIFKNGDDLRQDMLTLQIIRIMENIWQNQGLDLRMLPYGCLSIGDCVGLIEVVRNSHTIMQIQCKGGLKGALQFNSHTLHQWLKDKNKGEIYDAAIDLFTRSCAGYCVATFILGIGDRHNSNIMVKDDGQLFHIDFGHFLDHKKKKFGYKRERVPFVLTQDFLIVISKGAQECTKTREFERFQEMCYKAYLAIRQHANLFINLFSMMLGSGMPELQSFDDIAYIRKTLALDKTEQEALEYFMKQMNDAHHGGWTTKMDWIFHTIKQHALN

Take `Cn1c(=O)n(C2CCOCC2)c2c3cc(-c4ccc(OCCC[N+](C)(C)[O-])nc4)ccc3ncc21` [Example 1]: the IC50 was above 1.25 µM on mTOR, 17.8 µM at PI3Kα, 0.0054 µM on ATM and 10.3 µM on ATR.

Source of the values: patent US20190119270A1, “N-Oxide Compound and Its Use in Treating Cancer” (AstraZeneca AB, priority 2016, published 2019).
